Literature values as cited in US20110300232A1, “EFFECTS OF NITRIC OXIDE (NO) AND iNOS ON EXPRESSION AND SIGNAL TRANSDUCTION IN CANCER AND ITS USE IN DRUG DISCOVERY AND CANCER THERAPY DESIGN” (priority 2010, published 2011).

Columns and labels:
[1] = test system: p53; details: high levels of NO
[2] = test system: HIF-α; details: for effect on HIF-α expression: NO donor exposure, FIG. 4A and 4B, MCF-7
[3] = not given; remark: listed apart in the source

Compound	half-life in the body	NO level that stimulates p53 activation, causing apoptosis [1]	NO concentration required for HIF-α stabilization ([2]; low concentration of NO)	duration of NO level provided in media [3]	effect on HIF-α expression [2]
[N]=O [NO, Nitric oxide]	1 to 5 s	more than 500 nm	100-200 nm		
NCCCNCCCCN(CCCN)/[N+]([O-])=N/O [Sper/NO]				several hours	stabilizing the HIF-α expression
NCCN(CCN)/[N+]([O-])=N/O [DETA/NO]				several hours	stabilizing the HIF-α expression
CCN(CC)/[N+]([O-])=N/[O-].[Na+] [DEA/NO]				only an hour	did not regulate HIF-α expression
